Data: article PMC9942120 (iScience, 2023)

Tests used:
Type in all cases: cell-based
S100A16 = target: T1, S100A16 (Homo sapiens, UniProt Q96FQ6); assay: direct LC-MS/MS profiling of modified tryptic peptides; conditions: covalent at Cys4; H358 cells, […] AMG510, […] h (methods print […] h)
T1 sequence (Q96FQ6 1-103): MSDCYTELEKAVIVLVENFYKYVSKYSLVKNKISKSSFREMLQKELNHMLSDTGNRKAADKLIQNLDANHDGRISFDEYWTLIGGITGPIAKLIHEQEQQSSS

KRT4 = KRT4 (Homo sapiens, UniProt P19013); assay: as above; conditions: covalent at Cys42; H358 cells, […] AMG510, […] h (methods print […] h)
HSPD1 = HSPD1 (Homo sapiens, UniProt P10809); assay: as above; conditions: covalent at Cys237; H358 cells, […] AMG510, […] h (methods print […] h)
ALDOA [1] = target: T2, ALDOA (Homo sapiens, UniProt P04075); assay: LC-MS/MS site mapping; conditions: covalent at Cys339; H358 cells treated with AMG510
T2 sequence (P04075 2-364): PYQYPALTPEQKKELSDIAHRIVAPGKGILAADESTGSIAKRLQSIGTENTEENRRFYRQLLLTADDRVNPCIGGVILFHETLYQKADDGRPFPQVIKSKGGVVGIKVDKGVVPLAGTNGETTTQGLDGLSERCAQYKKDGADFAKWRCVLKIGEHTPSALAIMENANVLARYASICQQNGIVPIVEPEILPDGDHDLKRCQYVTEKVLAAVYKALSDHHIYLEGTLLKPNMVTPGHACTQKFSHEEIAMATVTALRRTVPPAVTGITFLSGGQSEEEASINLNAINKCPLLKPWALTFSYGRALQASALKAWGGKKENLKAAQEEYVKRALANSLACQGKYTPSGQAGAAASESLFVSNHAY

UBE2O = target: T3, UBE2O (Homo sapiens, UniProt Q9C0C9); assay: direct LC-MS/MS profiling of modified tryptic peptides; conditions: covalent at Cys370; H358 cells, […] AMG510, […] h (methods print […] h)
T3 sequence (Q9C0C9 1-1292): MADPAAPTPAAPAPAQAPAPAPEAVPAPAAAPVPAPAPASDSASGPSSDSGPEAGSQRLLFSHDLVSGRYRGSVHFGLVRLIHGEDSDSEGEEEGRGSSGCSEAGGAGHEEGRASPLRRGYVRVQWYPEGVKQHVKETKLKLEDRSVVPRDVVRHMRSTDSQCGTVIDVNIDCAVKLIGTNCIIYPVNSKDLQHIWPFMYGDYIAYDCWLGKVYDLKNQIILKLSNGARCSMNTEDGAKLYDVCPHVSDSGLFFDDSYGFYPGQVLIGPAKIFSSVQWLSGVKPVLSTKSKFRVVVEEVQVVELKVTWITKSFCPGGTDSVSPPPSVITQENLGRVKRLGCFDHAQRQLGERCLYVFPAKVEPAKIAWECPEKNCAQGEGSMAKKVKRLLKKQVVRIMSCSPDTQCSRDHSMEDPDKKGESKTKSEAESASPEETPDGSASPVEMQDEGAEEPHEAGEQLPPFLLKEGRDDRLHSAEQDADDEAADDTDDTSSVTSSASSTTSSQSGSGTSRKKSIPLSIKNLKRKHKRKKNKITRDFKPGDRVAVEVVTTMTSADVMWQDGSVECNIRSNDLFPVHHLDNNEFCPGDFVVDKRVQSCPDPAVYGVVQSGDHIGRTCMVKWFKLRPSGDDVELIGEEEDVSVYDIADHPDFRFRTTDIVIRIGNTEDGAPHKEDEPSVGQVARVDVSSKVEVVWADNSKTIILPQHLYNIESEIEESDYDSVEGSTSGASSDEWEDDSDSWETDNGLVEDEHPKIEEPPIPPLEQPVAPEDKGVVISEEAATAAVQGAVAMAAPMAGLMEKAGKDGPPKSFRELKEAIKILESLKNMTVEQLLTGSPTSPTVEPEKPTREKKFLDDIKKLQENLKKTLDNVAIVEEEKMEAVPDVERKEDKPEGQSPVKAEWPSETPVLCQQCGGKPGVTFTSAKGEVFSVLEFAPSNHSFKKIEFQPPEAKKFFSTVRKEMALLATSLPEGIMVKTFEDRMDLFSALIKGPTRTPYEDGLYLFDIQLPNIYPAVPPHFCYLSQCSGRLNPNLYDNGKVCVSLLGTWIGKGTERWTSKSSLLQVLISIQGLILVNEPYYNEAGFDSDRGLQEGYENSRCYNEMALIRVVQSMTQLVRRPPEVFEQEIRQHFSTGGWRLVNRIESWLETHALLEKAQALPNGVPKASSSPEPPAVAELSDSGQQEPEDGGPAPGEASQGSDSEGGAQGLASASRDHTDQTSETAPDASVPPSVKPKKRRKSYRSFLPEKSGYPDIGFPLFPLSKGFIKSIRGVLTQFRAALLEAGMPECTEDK

TK1 = target: T4, TK1 (Homo sapiens, UniProt P04183); assay: as above; conditions: covalent at Cys3; H358 cells, […] AMG510, […] h (methods print […] h)
T4 sequence (P04183 2-234): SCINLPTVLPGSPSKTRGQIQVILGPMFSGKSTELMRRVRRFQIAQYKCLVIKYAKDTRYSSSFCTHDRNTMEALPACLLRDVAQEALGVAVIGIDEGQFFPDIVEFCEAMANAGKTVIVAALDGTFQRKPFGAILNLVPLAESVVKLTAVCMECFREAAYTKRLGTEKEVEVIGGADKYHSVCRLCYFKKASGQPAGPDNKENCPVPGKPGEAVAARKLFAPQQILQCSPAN

ALDOA [2] = target: T2, ALDOA; assay: colorimetric aldolase activity kit; conditions: covalent; […] AMG510 or vehicle, […] min

Chain of HSPD1 (P10809 27-573): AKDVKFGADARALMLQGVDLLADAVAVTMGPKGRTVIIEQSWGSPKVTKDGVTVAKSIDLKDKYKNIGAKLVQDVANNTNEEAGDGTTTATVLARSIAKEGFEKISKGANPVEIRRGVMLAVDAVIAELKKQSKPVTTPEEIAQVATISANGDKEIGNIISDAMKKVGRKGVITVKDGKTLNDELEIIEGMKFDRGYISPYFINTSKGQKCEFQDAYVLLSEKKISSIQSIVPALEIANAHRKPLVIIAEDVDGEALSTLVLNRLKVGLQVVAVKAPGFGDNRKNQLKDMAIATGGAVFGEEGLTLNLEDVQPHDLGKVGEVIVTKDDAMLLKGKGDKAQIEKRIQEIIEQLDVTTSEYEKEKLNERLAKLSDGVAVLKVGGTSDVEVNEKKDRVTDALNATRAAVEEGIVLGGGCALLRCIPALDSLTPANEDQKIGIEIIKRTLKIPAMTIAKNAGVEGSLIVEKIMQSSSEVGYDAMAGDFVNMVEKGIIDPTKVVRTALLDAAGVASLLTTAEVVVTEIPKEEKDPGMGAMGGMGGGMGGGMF
Chain of KRT4 (P19013 whole entry): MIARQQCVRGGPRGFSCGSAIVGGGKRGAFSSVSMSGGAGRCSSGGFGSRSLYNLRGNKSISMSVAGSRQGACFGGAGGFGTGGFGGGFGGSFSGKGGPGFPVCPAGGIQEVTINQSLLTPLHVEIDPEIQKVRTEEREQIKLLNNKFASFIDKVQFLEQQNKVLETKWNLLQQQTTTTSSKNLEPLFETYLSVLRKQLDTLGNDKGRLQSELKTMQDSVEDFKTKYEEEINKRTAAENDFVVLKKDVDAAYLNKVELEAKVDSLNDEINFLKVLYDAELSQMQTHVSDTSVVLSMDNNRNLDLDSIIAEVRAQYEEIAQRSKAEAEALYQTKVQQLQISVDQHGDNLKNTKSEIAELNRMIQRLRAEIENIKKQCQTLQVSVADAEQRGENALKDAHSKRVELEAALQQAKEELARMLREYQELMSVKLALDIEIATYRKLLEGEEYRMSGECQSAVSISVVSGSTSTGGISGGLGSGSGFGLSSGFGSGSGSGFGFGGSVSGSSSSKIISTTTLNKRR

C=CC(=O)N1CCN(c2nc(=O)n(-c3c(C)ccnc3C(C)C)c3nc(-c4c(O)cccc4F)c(F)cc23)[C@@H](C)C1 [AMG510]
direct LC-MS/MS profiling of modified tryptic peptides (S100A16): transporters (RAE1 C106, S100A16C4, VDAC2 C91 and C225) | direct LC-MS/MS profiling of modified tryptic peptides (KRT4): differentiating epithelia cell markers (KRT4 C42) | direct LC-MS/MS profiling of modified tryptic peptides (HSPD1): protein folding accessory protein (HSPD1 C237) | LC-MS/MS site mapping (ALDOA [1]): We first confirmed that Cys339 was also endogenously modified by AMG510 in H358 cells | direct LC-MS/MS profiling of modified tryptic peptides (UBE2O): They included enzymes (PLOD3 C691, RPE C5, SPTLC2 C99, UBE2O C370, and TK1 C3) | direct LC-MS/MS profiling of modified tryptic peptides (TK1): They included enzymes (PLOD3 C691, RPE C5, SPTLC2 C99, UBE2O C370, and TK1 C3) | aldolase activity (ALDOA [2]): The ALDOA enzyme activity assay showed that the activity was indeed inhibited by the AMG510
